{
  "source": "patent US10131672B2",
  "about": "“Therapeutic or prophylactic agent for biliary diseases” (Toray Industries, Inc., priority 2010, dated 2018)",
  "key": {"biliary tract": {"test_system": "biliary tract", "conditions": "nalbuphine not statistically significant; butorphanol statistically significant; cited from earlier work"}, "sphincter of Oddi [1]": {"test_system": "sphincter of Oddi", "conditions": "literature reports; cited from earlier work"}, "sphincter of Oddi [2]": {"test_system": "sphincter of Oddi", "conditions": "animal experiments, high doses; cited from earlier work"}, "sphincter of Oddi [3]": {"test_system": "sphincter of Oddi", "experiment": "Rabbit model for contraction of sphincter of Oddi (perfusion pressure in sphincter of Oddi)", "assay_type": "in vivo", "procedure": "The method described in Wei J G et al., World J. Gastroenterol., 6, 102 (2000) was partially modified and used for measurement of a change in the perfusion pressure in sphincter of Oddi. The change in the perfusion pressure reflects the motility of a contractive change of sphincter of Oddi.\nMale NZW rabbits (Japan SLC) which had body weights of 2.0 to 2.5 kg upon delivery were fasted from the evening of the day before the experiment. The experiment was carried out under anesthesia with pentobarbital, with artificial ventilation. Each rabbit was immobilized in the supine position and subjected to abdominal incision to expose the periduodenal area and the common bile duct. A small incision was made in the common bile duct, and a cannula was inserted into the common bile duct toward the duodenum side, followed by indwelling its tip in sphincter of Oddi (sphincter ampullae). For biliary excretion, another cannula was inserted into the bile duct toward the gallbladder side and immobilized. From the other end of the cannula whose tip was indwelled in the sphincter of Oddi, physiological saline was continuously injected at a flow rate of 6 mL/hour to allow perfusion in the sphincter of Oddi. By recording the perfusion pressure with a blood pressure monitoring transducer (DX-300, Nihon Kohden Corporation), the contraction reaction of sphincter of Oddi was measured.\nTo the rabbit, 5% aqueous mannitol solution, which is the vehicle for the Compound 1 solution, was administered via the jugular vein. Further, not less than 30 minutes after the administration of the vehicle, Compound 1 was administered to the same individual at a dose of 0.2 μg/kg via the jugular vein. The administration volume of the vehicle and Compound 1 was 1 mL/kg, and the administration was carried out for 60 seconds.\nThus, in the Compound 1-administered group, the rate of change in the maximum perfusion pressure was lower compared to the vehicle-administered group, and this difference was significant (*p<0.05, paired t-test)."}, "sphincter of Oddi [4]": {"test_system": "sphincter of Oddi", "experiment": "Sphincter of Oddi perfusion pressure after intravenous administration to a dog (literature)", "assay_type": "in vivo", "procedure": "Further, gabexate mesilate reduces the sphincter of Oddi perfusion pressure by 6.9 mmH2O (corresponds to 0.51 mmHg) or 10.6 mmH2O (corresponds to 0.78 mmHg) when it is intravenously administered to a dog at a dose of 1 mg/kg or 3 mg/kg, respectively (Yamasato T. et al., J Smooth Muscle Res., 27, 87 (1991). Since oxapium iodide is usually orally administered at a dose of 30 to 60 mg per adult per day dividedly in 3 times, and 100 mg of gabexate mesilate is usually dissolved in 500 mL of Ringer's solution and the resulting solution is administered by intravenous drip infusion at a rate of not more than 8 mL/minute, the above-described doses are considered to be equivalent to the clinical doses of those drugs."}, "sphincter of Oddi [5]": {"test_system": "sphincter of Oddi", "conditions": "dog, intravenous, cited from earlier work"}},
  "note": "Read-outs that look alike come from different tables or passages of the source.",
  "data": [
    {"compound": "Oc1ccc2c(c1)[C@@]13CCCC[C@@]1(O)[C@@H](C2)N(CC1CCC1)CC3", "note": "[butorphanol]", "values": [
      {"measurement": "increase of the inner pressure of biliary tract", "setting": "biliary tract", "result": 12, "unit": "%"}
    ]},
    {"compound": "C=CCN1CC[C@]23c4c5ccc(O)c4O[C@H]2C(=O)CC[C@@]3(O)[C@H]1C5", "note": "[naloxone]", "values": [
      {"measurement": "action on contraction of sphincter of Oddi", "setting": "sphincter of Oddi [1]", "result": "have an action to inhibit contraction of sphincter of Oddi"}
    ]},
    {"compound": "methionine enkephalin", "values": [
      {"measurement": "action on contraction of sphincter of Oddi", "setting": "sphincter of Oddi [1]", "result": "cause transient contraction of sphincter of Oddi, followed by showing a continuous contraction inhibition action"}
    ]},
    {"compound": "CN1CC[C@]2(C)C[C@@H](Cc3ccc(O)cc32)C1", "note": "[eptazocine]", "values": [
      {"measurement": "contraction of sphincter of Oddi", "setting": "sphincter of Oddi [2]", "result": "shows an action to cause contraction of sphincter of Oddi"}
    ]},
    {"compound": "COc1cccc(C2(O)CCCCC2CN(C)C)c1", "note": "(stereo not drawn) [tramadol]", "values": [
      {"measurement": "contraction of sphincter of Oddi", "setting": "sphincter of Oddi [2]", "result": "causes contraction of sphincter of Oddi"}
    ]},
    {"compound": "CN(C(=O)/C=C/c1ccoc1)[C@@H]1CC[C@@]2(O)[C@H]3Cc4ccc(O)c5c4[C@@]2(CCN3CC2CC2)[C@H]1O5.Cl", "note": "[Compound 1, (−)-17-(cyclopropylmethyl)-3,14β-dihydroxy-4,5α-epoxy-6β-[N-methyl-trans-3-(3-furyl)acrylamido]morphinan hydrochloride]", "values": [
      {"measurement": "reduction of the actual value of the maximum perfusion pressure", "setting": "sphincter of Oddi [3]; 0.2 μg/kg intravenous to rabbits, on average", "result": 0.95, "unit": "mmHg"},
      {"measurement": "action on contraction of sphincter of Oddi (conclusion in words)", "setting": "sphincter of Oddi [3]; 0.2 μg/kg intravenous, rabbit", "result": "has an action to inhibit contraction of sphincter of Oddi"},
      {"measurement": "rate of change in the maximum perfusion pressure (Oddi muscle contraction (Delta %))", "setting": "sphincter of Oddi [3]; 0.2 μg/kg intravenous, 3 minutes after vs 3 minutes before beginning of administration, mean, N=11, vehicle 99.81%, p<0.05", "result": 93.32, "unit": "%"}
    ]},
    {"compound": "C[N+]1(CC2COC(c3ccccc3)(C3CCCCC3)O2)CCCCC1", "note": "(stereo not drawn) [Oxapium iodide]", "values": [
      {"measurement": "reduction of the sphincter of Oddi perfusion pressure (converted)", "setting": "sphincter of Oddi [4]; 0.3 mg/kg", "result": 0.74, "unit": "mmHg"},
      {"measurement": "reduction of the sphincter of Oddi perfusion pressure", "setting": "sphincter of Oddi [5]; 0.3 mg/kg (Tamasawa Y. et al. 1972)", "result": "about 10 mmH2O"}
    ]},
    {"compound": "Oc1ccc2c3c1O[C@H]1[C@@H](O)CC[C@@]4(O)[C@@H](C2)N(CC2CCC2)CC[C@]314", "note": "[nalbuphine]", "values": [
      {"measurement": "action on contraction of sphincter of Oddi", "setting": "sphincter of Oddi [1]", "result": "does not exert any action on contraction of sphincter of Oddi"}
    ]},
    {"compound": "CCOC(=O)c1ccc(OC(=O)CCCCCNC(=N)N)cc1", "note": "[gabexate mesilate]", "values": [
      {"measurement": "reduction of the sphincter of Oddi perfusion pressure (converted)", "setting": "sphincter of Oddi [4]; 1 mg/kg", "result": 0.51, "unit": "mmHg"},
      {"measurement": "reduction of the sphincter of Oddi perfusion pressure (converted)", "setting": "sphincter of Oddi [4]; 3 mg/kg", "result": 0.78, "unit": "mmHg"},
      {"measurement": "reduction of the sphincter of Oddi perfusion pressure", "setting": "sphincter of Oddi [5]; 1 mg/kg (Yamasato T. et al. 1991)", "result": 6.9, "unit": "mmH2O"},
      {"measurement": "reduction of the sphincter of Oddi perfusion pressure", "setting": "sphincter of Oddi [5]; 3 mg/kg (Yamasato T. et al. 1991)", "result": 10.6, "unit": "mmH2O"}
    ]}
  ]
}
